According to patent US5814634A, “Alkylenediamine derivative anti-ulcer drug and antibacterial drug” (Shiseido Co. Ltd., priority 1996, dated 1998):

Tests used:
gastric mucosa = experiment: PD: Gastric Mucosal Integrity Test (gastric mucosal potential difference); assay type: in vivo, rat (male Crj:SD); set-up: key: 5: Same as the control with no recognizable damage at all.; 4: Though a slight PD-decreasing tendency suggesting a slight possibility of mucosal damage is found, there is no problem.; 3: Though a weak decrease in PD and a possibility of a weak mucosal damage is recognized, there is no substantial problem.; 2: Medium degree of decrease in PD is found and a mucosal damage is recognized.; 1: Heavy degree of decrease in PD is found and a remarkable mucosal damage is recognized; conditions: 100 mg/kg into chamber, rats, 60 minutes
Procedure: PD: Gastric Mucosal Integrity Test
In this case, since the sample compound has a necrotizing effect, it is inappropriate as an anti-ulcer medicament.
Therefore, the gastric mucosal potential difference (PD), which reflects the integrity of the gastric mucosa, is measured so as to confirm that the sample compound has no damaging effect on gastric mucosa, which is toxicity at gastric mucosal level.
Male Crj:SD rats (7 to 8-week-old) were fasted overnight, but allowed free access to water, and then, under urethane anesthesia (1.25 g/kg, i.p.), fixed to a cork board on its back. The abdomen of each rat was incised, and a small incision was made in the forestomach. Then, the inside of the stomach was washed with physiological saline heated at 37° C. From the forestomach, along the greater curvature thereof, the stomach was incised without damaging blood vessels. After the height of the cork board was adjusted on a jack, the stomach was mounted on ex vivo chamber. The area of the gastric mucosa exposed to the inside of this chamber was 2.5 cm^2. The inside of the chamber was perfused with physiological saline warmed at 37° C. by micro tube pump. By using an agar bridge containing 3M KCl, the potential difference between the chamber and the abdominal cavity was measured by a PD meter. Here, the rectal temperature was measured to control the body temperature during the experiment. After the PD was sufficiently stabilized, the perfusate was stopped and then 100 mg/10 ml/kg of the sample compound dissolved or suspended in an aqueous solution of 0.5% sodium carboxymethyl cellulose or 0.05% Tween 80 was administered into the chamber, while PD was recorded for 60 minutes. To a control, the vehicle was administered.
The change in PD during 60 minutes after the administration of 100 mg/kg of the sample compound was collectively studied and, with reference to the positive control, classified into 5 levels as follows:
5: Same as the control with no recognizable damage at all.
3: Though a weak decrease in PD and a possibility of a weak mucosal damage is recognized, there is no substantial problem.
2: Medium degree of decrease in PD is found and a mucosal damage is recognized.
1: Heavy degree of decrease in PD is found and a remarkable mucosal damage is recognized.

stress ulcer = experiment: WIS: Restraint and Water Immersion Stress-Induced Ulcer Inhibition Test; assay type: in vivo, rat (male Crj:SD or Slc:SD); conditions: 100 mg/kg oral, rats, water immersion stress 7 hours
In short: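 Fasted male SD rats (6–7 weeks, 5–8 per group) received compound orally at 100 mg/kg in 0.3% CMC-Na or 0.05% Tween 80; 10 min later, restraint with water immersion (21 °C) for 7 h. Summed glandular erosion length gave the ulcer index; inhibition (%) versus vehicle controls.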

Male Slc:ICR mice = system: Male Slc:ICR mice; set-up: species or system mouse (male Slc:ICR); conditions: mouse, in vivo
In short: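 Fasted 5-week-old male mice (3 to 5 per group) received a single oral 2,000 mg/kg dose in 0.5% sodium carboxymethyl cellulose, with vehicle controls. Behavior and body weight were followed daily and organs examined at death or one week post-dose. Toxicity was scored 1-5 from mortality and behavioral or organ findings.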

CC(C)=CCOc1ccc(C(=O)NCCN2CCOCC2)cc1 [Example 28]
PD: change in gastric mucosal potential difference, 5 levels (gastric mucosa): 5
WIS: ulcer formation inhibitory rate (stress ulcer): 64%
AT: toxicity at single dose, 5 levels (Male Slc:ICR mice): 3

CC(C)=CCC/C(C)=C/COc1ccc(C(=O)NCCN2CCOCC2)cc1 [Example 31]
PD: change in gastric mucosal potential difference, 5 levels (gastric mucosa): 3
WIS: ulcer formation inhibitory rate (stress ulcer): 54%
AT: toxicity at single dose, 5 levels (Male Slc:ICR mice): 5

CC(C)=CCOc1ccc(C(=O)NCCN2CCOCC2)cc1OCC=C(C)C [Example 35]
PD: change in gastric mucosal potential difference, 5 levels (gastric mucosa): 5
WIS: ulcer formation inhibitory rate (stress ulcer): 48%
AT: toxicity at single dose, 5 levels (Male Slc:ICR mice): 4
